# Data from publication PMC6114103, “17-DMAG inhibits the multiplication of several Babesia species and Theileria equi on in vitro cultures, and Babesia microti in mice” (International Journal for Parasitology: Drugs and Drug …, 2018).
# Assays:
# [1] = system: B. microti (Munich strain); assay: inhibition assay using a B. microti-infected mouse model; assay type: in vivo, BALB/c mice; settings: 5 consecutive days; for day p.i. on which parasite no longer detected in blood smears via microscopy (parasite clearance): 17-DMAG + DA 15 + 15, 17-DMAG + AV 15 + 10, DA + AV 15 + 10 mg/kg BW
# Method: B. microti (Munich strain) was recovered from -80 °C stock in two 6-week female Balb/c mice (Clea, Japan). The parasitemia was monitored every 2 days. […] The inhibitory effect of 17-DMAG was also determined using a B. microti mouse model according to the previous protocol ([Goo et al., 2010]). Briefly, 35 female BALB/c mice aged 8 weeks received an intraperitoneal injection of 1 × 10^7 of B. microti-infected RBC and were divided into seven groups. Another group consisting of five mice was kept uninfected and untreated as a control. The multiplication of B. microti was observed from blood smears after staining with Giemsa using a light microscope. The drug treatment was initiated to all infected mice on day five, after the parasitemia reached approximately 1%, and continue to the total of five consecutive days. Group 1 was treated with 4% DMSO in saline water as a control intraperitoneally. […] The parasitemia was estimated from Giemsa-stained blood smears using microscopy in approximately 5000 RBC. Furthermore, the hematology profiles including RBC, hemoglobin, and hematocrit were measured from 10 μl of mouse blood using an automatic hematology analyzer (Celltac α MEK-6450, Nihon Kohden, Tokyo, Japan). The rate of parasitemia, hematology profiles, and mouse body weight was monitored for 60 days. The experiment was repeated once so each group contained 10 mice. […] Combination index (CI) values for the drug combination were calculated using CompuSyn software ([Chou, 2006]). […] The differences among groups regarding the parasitemia, hematology profiles, and body weight in the B. microti-infected mouse model were analyzed using Student's t-test, available in GraphPad Prism software. The difference was considered significant if P < 0.05.
# [2] = effect of 17-DMAG on uninfected mice; assay type: in vivo, BALB/c mice
# Method: (§1) Prior to the subculture of parasites, bovine and equine RBC were incubated with 1 μM of 17-DMAG for 3 h. The RBC were washed three times with PBS and mixed with B. bovis and T. equi parasitized RBC to obtain 1% parasitemia (infected RBC). Subsequently, 100 μl of infected RBC was added to 900 μl of complete medium in a 24-well plate. The untreated erythrocytes were used as a control. The parasitemia was monitored daily via microscopy observation of a Giemsa-stained blood smear for 4 days. Furthermore, the effect of 17-DMAG on mice was evaluated using 8-week-old BALB/c mice. Groups 1 and 2, consisting of three mice each, received intraperitoneal injections of 17-DMAG at a concentration of 15 and 30 mg/kg BW, respectively, for 5 days. One group (three mice) remained as an untreated control.
# B. bovis = assay: effect of 17-DMAG on host erythrocytes: parasite subculture in pretreated bovine RBC; assay type: cell-based, Babesia bovis; settings: bovine RBC incubated with 1 μM for 3 h, parasitemia 4 days
# Method: as §1
# T. equi = assay: effect of 17-DMAG on host erythrocytes: parasite subculture in pretreated equine RBC; assay type: cell-based, Theileria equi; settings: equine RBC incubated with 1 μM for 3 h, parasitemia 4 days
# Method: as §1
# [3] = introduction, background statement; ref Jilani et al., 2013; cited from earlier work
# [4] = 17-DMAG 30, DA 25, AV 20 mg/kg BW
Structure (SMILES),"peak parasitemia ([1]; 17-DMAG 30 mg/kg BW intraperitoneal, peak on day 10 p.i., 10 mice)","day p.i. on which parasite no longer detected in blood smears via microscopy (parasite clearance) [1, 4]","inhibition of the multiplication of B. microti in mice ([1]; 17-DMAG 30, DA 25, AV 20 mg/kg BW, combinations 17-DMAG 15 with DA 15 or AV 10 mg/kg BW)",mouse body weight ([2]; 15 mg/kg BW intraperitoneal for 5 days),"mouse body weight ([2]; 30 mg/kg BW intraperitoneal for 5 days, day 10 post treatment, not significantly different from control)",multiplication of B. bovis in 17-DMAG-treated RBC versus normal RBC (B. bovis),multiplication of T. equi in 17-DMAG-treated RBC versus normal RBC (T. equi),solubility [3]
"CO[C@H]1/C=C\C=C(/C)C(=O)NC2=CC(=O)C(NCCN(C)C)=C(C[C@@H](C)C[C@H](OC)[C@H](O)[C@@H](C)/C=C(\C)[C@@H]1OC(N)=O)C2=O [17-DMAG, 17-dimethylaminoethylamino-17-demethoxygeldanamycin]",4.7 ± 2.0%,36 day p.i.,effectively inhibited,did not show any effect,reduced slightly,did not significantly differ,did not significantly differ,water soluble
"O=C1C(O)=C([C@H]2CC[C@H](c3ccc(Cl)cc3)CC2)C(=O)c2ccccc21 [AV, atovaquone]",,≤ 28 day p.i.,,,,,,
